Calls of active or inactive are those of the source. For most assays here, no stated cut-off is given here; in the data, actives have a measured Kd and inactives only a lower limit.
How the values were obtained:
[1] = molecular target: T1, Calcium/calmodulin-dependent protein kinase type IV (Homo sapiens, UniProt Q16566)
T1 sequence (Q16566 whole entry): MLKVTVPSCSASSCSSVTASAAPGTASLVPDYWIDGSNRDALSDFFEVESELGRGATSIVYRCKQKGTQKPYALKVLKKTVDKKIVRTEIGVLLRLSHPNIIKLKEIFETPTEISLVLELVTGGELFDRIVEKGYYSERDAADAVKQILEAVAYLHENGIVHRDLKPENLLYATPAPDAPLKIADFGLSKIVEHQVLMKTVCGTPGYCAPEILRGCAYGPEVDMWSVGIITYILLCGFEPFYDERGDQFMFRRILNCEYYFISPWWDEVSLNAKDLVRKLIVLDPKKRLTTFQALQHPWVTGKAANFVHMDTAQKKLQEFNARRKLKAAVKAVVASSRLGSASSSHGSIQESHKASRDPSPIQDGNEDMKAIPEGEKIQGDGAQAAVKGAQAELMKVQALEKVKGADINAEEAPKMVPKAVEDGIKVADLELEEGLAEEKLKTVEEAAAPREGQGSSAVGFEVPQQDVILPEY

[2] = molecular target: Casein kinase I isoform epsilon (Homo sapiens, UniProt P49674)
Ephrin type-B receptor 2 = molecular target: T2, Ephrin type-B receptor 2 (Homo sapiens, UniProt P29323)
T2 sequence (P29323 whole entry): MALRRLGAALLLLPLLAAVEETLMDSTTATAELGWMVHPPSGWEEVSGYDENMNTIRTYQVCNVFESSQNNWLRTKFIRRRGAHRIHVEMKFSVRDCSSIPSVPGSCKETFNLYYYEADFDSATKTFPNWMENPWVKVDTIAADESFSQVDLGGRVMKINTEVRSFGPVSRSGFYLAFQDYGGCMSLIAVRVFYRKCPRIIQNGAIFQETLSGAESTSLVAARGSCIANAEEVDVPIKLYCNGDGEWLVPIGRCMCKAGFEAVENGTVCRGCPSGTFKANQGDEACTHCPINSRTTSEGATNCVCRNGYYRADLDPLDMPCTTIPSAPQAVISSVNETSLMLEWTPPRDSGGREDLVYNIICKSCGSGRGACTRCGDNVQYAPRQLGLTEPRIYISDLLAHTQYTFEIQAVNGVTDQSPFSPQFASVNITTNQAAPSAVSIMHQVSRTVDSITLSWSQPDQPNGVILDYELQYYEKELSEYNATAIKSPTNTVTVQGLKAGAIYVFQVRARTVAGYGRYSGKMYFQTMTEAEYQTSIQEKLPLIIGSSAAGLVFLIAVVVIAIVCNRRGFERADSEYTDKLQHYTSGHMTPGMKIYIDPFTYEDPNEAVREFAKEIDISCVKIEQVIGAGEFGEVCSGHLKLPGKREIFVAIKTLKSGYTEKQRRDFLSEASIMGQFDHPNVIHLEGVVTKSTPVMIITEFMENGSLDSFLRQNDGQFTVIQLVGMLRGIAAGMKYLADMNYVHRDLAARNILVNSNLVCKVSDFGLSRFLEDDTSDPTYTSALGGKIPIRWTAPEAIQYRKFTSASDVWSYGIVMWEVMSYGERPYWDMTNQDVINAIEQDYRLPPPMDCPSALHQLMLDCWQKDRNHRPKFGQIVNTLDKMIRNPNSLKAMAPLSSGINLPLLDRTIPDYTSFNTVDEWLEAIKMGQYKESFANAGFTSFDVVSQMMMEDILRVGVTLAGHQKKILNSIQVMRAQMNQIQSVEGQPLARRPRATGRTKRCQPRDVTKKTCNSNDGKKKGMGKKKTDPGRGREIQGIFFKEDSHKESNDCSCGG

Pyridoxal kinase = molecular target: T3, Pyridoxal kinase (Homo sapiens, UniProt O00764)
T3 sequence (O00764 whole entry): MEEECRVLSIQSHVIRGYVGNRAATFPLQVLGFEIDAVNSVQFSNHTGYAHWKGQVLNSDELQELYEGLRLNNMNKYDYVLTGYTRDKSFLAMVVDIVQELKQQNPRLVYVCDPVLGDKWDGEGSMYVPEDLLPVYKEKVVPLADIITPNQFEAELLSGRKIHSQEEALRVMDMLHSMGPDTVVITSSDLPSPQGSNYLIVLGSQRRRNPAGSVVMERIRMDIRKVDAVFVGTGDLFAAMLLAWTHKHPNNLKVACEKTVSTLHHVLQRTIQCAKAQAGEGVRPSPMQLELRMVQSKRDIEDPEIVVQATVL

[3] = molecular target: Ribosomal protein S6 kinase alpha-1 (Homo sapiens, UniProt Q15418)
[4] = molecular target: T4, Acyl-CoA dehydrogenase family member 11 (Homo sapiens, UniProt Q709F0)
T4 sequence (Q709F0 whole entry): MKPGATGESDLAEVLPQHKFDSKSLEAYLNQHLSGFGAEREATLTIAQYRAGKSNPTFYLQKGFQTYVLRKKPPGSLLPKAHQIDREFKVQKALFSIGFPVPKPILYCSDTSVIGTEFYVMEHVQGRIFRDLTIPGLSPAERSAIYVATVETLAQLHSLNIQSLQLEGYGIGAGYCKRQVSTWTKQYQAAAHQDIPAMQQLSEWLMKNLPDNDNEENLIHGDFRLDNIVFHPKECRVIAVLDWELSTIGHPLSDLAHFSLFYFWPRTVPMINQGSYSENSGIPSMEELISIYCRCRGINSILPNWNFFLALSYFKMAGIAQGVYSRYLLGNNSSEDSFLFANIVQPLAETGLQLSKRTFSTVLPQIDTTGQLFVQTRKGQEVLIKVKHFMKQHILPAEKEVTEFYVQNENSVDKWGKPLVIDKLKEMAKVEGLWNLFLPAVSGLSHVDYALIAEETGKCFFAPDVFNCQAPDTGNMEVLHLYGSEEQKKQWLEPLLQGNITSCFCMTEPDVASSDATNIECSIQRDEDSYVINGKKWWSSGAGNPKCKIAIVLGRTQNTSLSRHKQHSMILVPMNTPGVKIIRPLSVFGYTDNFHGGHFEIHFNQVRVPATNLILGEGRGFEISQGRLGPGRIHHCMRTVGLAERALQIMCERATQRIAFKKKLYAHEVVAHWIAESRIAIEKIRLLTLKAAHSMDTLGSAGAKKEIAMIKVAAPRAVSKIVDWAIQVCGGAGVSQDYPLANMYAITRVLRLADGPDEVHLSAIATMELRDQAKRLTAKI

Casein kinase I isoform epsilon, sequence (P49674 whole entry, canonical isoform): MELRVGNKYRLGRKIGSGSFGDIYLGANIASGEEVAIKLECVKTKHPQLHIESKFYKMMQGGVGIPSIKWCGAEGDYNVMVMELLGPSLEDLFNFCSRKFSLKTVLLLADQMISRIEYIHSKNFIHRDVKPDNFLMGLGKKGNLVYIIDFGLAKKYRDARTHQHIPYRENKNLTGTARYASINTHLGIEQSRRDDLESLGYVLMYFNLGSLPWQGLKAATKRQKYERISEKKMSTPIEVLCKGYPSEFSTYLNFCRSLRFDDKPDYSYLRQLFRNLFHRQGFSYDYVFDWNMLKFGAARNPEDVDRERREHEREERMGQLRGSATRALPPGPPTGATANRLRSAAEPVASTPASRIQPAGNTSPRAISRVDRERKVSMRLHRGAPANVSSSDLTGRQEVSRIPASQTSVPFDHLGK
Ribosomal protein S6 kinase alpha-1, sequence (Q15418 whole entry): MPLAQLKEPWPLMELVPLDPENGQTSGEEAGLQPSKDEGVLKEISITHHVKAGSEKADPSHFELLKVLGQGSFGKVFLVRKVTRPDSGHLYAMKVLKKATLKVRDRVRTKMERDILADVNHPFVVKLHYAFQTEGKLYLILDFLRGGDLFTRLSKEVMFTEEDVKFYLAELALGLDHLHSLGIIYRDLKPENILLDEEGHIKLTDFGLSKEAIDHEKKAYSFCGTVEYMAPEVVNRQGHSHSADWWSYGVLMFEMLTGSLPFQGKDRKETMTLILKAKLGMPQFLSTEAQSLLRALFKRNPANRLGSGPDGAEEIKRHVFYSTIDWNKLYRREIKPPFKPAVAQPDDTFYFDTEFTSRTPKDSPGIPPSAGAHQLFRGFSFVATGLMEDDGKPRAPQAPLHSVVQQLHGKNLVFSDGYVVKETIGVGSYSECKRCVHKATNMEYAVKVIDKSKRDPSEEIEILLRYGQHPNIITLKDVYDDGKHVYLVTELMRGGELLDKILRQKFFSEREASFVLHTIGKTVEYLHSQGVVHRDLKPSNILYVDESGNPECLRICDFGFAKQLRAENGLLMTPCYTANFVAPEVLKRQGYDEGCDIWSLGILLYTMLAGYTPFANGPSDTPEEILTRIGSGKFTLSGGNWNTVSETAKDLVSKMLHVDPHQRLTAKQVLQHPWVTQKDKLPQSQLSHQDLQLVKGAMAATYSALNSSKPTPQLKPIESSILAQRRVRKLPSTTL

| Structure (SMILES) | Kd [1] | Kd [2] | Kd (Ephrin type-B receptor 2) | Kd (Pyridoxal kinase) | Kd [3] | Kd [4] |
| --- | --- | --- | --- | --- | --- | --- |
| O=c1[nH]c([C@@H]2CCCN2)nc2c1oc1ccc(Cl)cc12 | > 30 µM (inactive) | > 30 µM (inactive) | > 30 µM (inactive) | > 30 µM (inactive) | > 30 µM (inactive) | – |
| CCN1CCN(Cc2ccc(Nc3ncc(F)c(-c4cc(F)c5nc(C)n(C(C)C)c5c4)n3)nc2)CC1 [ABEMACICLIB] | > 30 µM (inactive) | > 30 µM (inactive) | > 30 µM (inactive) | > 30 µM (inactive) | > 30 µM (inactive) | > 30 µM (inactive) |
| COc1cccc(Nc2ncnn3ccc(CN4CC[C@@H](N)[C@H](O)C4)c23)c1 [BMS-690514] | > 30 µM (inactive) | 3.64 µM (active) | > 30 µM (inactive) | > 30 µM (inactive) | > 30 µM (inactive) | > 30 µM (inactive) |
| CNC(=O)c1ccc(Nc2ncc(C(F)(F)F)c(NCc3nccnc3N(C)S(C)(=O)=O)n2)cc1 [DEFACTINIB] | > 30 µM (inactive) | > 30 µM (inactive) | > 30 µM (inactive) | > 30 µM (inactive) | > 30 µM (inactive) | > 30 µM (inactive) |
| O=C(Nc1ccc(OC(F)(F)F)cc1)c1sccc1NCc1ccnc2ccccc12 [OSI-930] | > 30 µM (inactive) | > 30 µM (inactive) | > 30 µM (inactive) | > 30 µM (inactive) | > 30 µM (inactive) | > 30 µM (inactive) |
| FC(F)(F)c1ccc(CNc2ccc(Cc3c[nH]c4ncc(Cl)cc34)cn2)cn1 [PEXIDARTINIB] | > 30 µM (inactive) | > 30 µM (inactive) | > 30 µM (inactive) | > 30 µM (inactive) | > 30 µM (inactive) | > 30 µM (inactive) |
| C=CCN(/C=C1/C(=O)O[C@H](COC)[C@@]2(C)C1=C(O)C(=O)C1=C2[C@H](OC(C)=O)C[C@]2(C)C(=O)CC[C@@H]12)CC=C [SONOLISIB] | > 30 µM (inactive) | > 30 µM (inactive) | > 30 µM (inactive) | > 30 µM (inactive) | > 30 µM (inactive) | > 30 µM (inactive) |
| CN1CCN(c2nc(C3=C(c4c[nH]c5ccccc45)C(=O)NC3=O)c3ccccc3n2)CC1 [SOTRASTAURIN] | > 30 µM (inactive) | > 30 µM (inactive) | > 30 µM (inactive) | > 30 µM (inactive) | > 30 µM (inactive) | – |
| CC(C)(O)CC(=O)NCCn1ccc2ncnc(Nc3ccc(Oc4cccc(C(F)(F)F)c4)c(Cl)c3)c21 [TAK-285] | > 30 µM (inactive) | > 30 µM (inactive) | > 30 µM (inactive) | > 30 µM (inactive) | > 30 µM (inactive) | > 30 µM (inactive) |
| Cc1cc(C(=O)Nc2cc(Oc3ccc4nc(NC(=O)C5CC5)cn4n3)ccc2C)n(C)n1 [TAK-593] | > 30 µM (inactive) | > 30 µM (inactive) | > 30 µM (inactive) | > 30 µM (inactive) | > 30 µM (inactive) | > 30 µM (inactive) |
| O[C@H]1CC[C@H](Nc2ncc3nc(Nc4c(F)cc(F)cc4F)n([C@H]4CCOC4)c3n2)CC1 [TANZISERTIB] | > 30 µM (inactive) | > 30 µM (inactive) | > 30 µM (inactive) | > 30 µM (inactive) | > 30 µM (inactive) | > 30 µM (inactive) |
| Cc1cc(-c2cc(OC(=O)c3ccccc3)ccc2Cl)cc2nnc(Nc3ccc(OCCN4CCCC4)cc3)nc12 [TG100-801] | > 30 µM (inactive) | > 30 µM (inactive) | 1.3 µM (active) | > 30 µM (inactive) | > 30 µM (inactive) | > 30 µM (inactive) |
| C[C@@H]1COC(Nc2ccc3ncnc(Nc4ccc(OCc5nccs5)c(Cl)c4)c3c2)=N1 [VARLITINIB] | > 30 µM (inactive) | > 30 µM (inactive) | > 30 µM (inactive) | > 30 µM (inactive) | > 30 µM (inactive) | > 30 µM (inactive) |

Source: ChEMBL document CHEMBL3991601, “The target landscape of clinical kinase drugs” (Science, 2017)
